Source: patent EP0104826A2, “Immunomodulator and method of use for immunomodulation” (FUJISAWA PHARMACEUTICAL CO., LTD., priority 1982, dated 1984)

Key:
Format in all cases: in vivo
[1] = tested on: thymus; assay: Dexamethasone-induced thymus atrophy in mice; conditions: ddY mice; dexamethasone 1 ug/ml in drinking water, no sample; n=5
Protocol: Five week-old ddY mice(male) were used. Samples were given subcutaneously twice per day from day 0 to day 2 of the experiment. Five hours after first medication on day 0, mice were supplied with drinking water containing 1 ug/ml of dexamethasone.
At day 2, the weight of thymus of the treated mice was compared with that of the nontreated controls.

[2] = tested on: antibody forming capacities; assay: Antibody forming capacity (PFC-SRBC) in mice immunosuppressed with mitomycin C; conditions: BDF1 mice; Mitomycin C (1.0 mg/kg) i.p. + Saline
Protocol: Female BDF1 (8 weeks in age) mice were injected intraperitoneally with mitomycin C (1 mg/kg) from four days before immuization with 5 x 10^8 SRBC, every day for three days. Samples also were administered to mice intraperitoneally from four days before immunization, every day for five days.
At day 9, mice were sacrificed and the number of direct plaque forming cells per spleen was measured by using Cunningham modification method.

[3] = tested on: antibody forming capacities; assay: Antibody forming capacity (PFC-SRBC) in mice immunosuppressed with cyclophosphamide; conditions: BDF1 mice; Cyclophosphamide (22.5 mg/kg) i.p. + Saline
Protocol: Female BDF1 (8 weeks in age) mice were injected intraperitoneally with cyclophosphamide (22.5 mg/kg) 4 days before immunization with 5 x 10^8 SRBC. Samples were administered to mice i.p. from four days before immunization, every day for five days.
Mouse splenic lymphocytes producing antibody against SRBC were quantitated by using Cunningham modification method described previously.

`C[C@@H]1C[C@H]2[C@@H]3CCC4=CC(=O)C=C[C@]4(C)[C@@]3(F)[C@@H](O)C[C@]2(C)[C@@]1(O)C(=O)CO` [Dexamethasone, reference compound] showed a Thymus weight [1] of 57.2 mg/mouse.

With `CO[C@@]12[C@H](COC(N)=O)C3=C(C(=O)C(C)=C(N)C3=O)N1C[C@@H]1N[C@@H]12` [Mitomycin C, reference compound] the “PFC-SRBC/spleen (average number of 5 mice/group)” value [2] was 12.65 x 10^4 PFC-SRBC/spleen.

For `O=P1(N(CCCl)CCCl)NCCCO1` (stereo not drawn) [Cyclophosphamide, reference compound], the “PFC-SRBC/spleen (average number of 5 mice/group)” value [3] was 8.46 x 10^4 PFC-SRBC/spleen.
